# Reference: patent US10047034B2, “Polyhydroxylated pentacyclic triterpene acids as HMG-COA reductase inhibitors” (Prairie Berry Europe GmbH, priority 2012, dated 2018)
# Marks after values point to notes of the source that are not given here.
# Experiments:
# [1] = tested on: hamsters fed with a high-cholesterol diet; assay: In vivo food cholesterol reduction (hypocholesterolemic activity); set-up: species or system golden Syrian hamsters; conditions: oral once a day, extract 100 mg/kg, ezetimibe 1 mg/kg
# Description: The dry extract of example 1 was evaluated for possible hypocholesterolemic activity in hamsters fed with a high-cholesterol diet. Groups of 10 male golden Syrian hamsters were induced to hypercholesterolemia by a high cholesterol diet (g/100 g: 5.0 corn oil, 5.0 coconut oil, 0.2 cholesterol and 89.8 standard diet throughout the 28-day experimental period. After the test animals had been kept on the high cholesterol diet for 7 days, vehicle (1% Cremophor EL in phosphate buffered saline) and extract of example 1 (incorporated into said vehicle) were administered orally, starting on day 1, for 28 days at 100 mg/kg, once a day, were administered orally for 28 consecutive days. Ezetimibe, the positive control, was also administered orally (at 1 mg/kg) for 28 consecutive days. Blood was drawn in overnight fasted animals on day 1 (pre-treatment), day 8, day 15, and day 29 for measurements of serum total cholesterol (Total plasma cholesterol), high density lipoprotein (HDL), low density lipoprotein (LDL) and triglyceride (TG) levels. The measurement values on day 8, day 15, […] and day 29 were transformed into percentage. One-way ANOVA and Dunnett's test were used to ascertain difference between vehicle control and treated groups.
# [2] = biological target: T1, Human recombinant HMG-CoA reductase (Homo sapiens, UniProt P04035); assay: HMG-CoA reductase inhibition test ([14C]mevalonate formation); type: biochemical; conditions: for inhibition at 30 µM / inhibition at 3 µM: duplicates; for HMG-CoA reductase inhibiting activity (in words): own investigations
# T1 sequence (P04035 426-888 limits assumed): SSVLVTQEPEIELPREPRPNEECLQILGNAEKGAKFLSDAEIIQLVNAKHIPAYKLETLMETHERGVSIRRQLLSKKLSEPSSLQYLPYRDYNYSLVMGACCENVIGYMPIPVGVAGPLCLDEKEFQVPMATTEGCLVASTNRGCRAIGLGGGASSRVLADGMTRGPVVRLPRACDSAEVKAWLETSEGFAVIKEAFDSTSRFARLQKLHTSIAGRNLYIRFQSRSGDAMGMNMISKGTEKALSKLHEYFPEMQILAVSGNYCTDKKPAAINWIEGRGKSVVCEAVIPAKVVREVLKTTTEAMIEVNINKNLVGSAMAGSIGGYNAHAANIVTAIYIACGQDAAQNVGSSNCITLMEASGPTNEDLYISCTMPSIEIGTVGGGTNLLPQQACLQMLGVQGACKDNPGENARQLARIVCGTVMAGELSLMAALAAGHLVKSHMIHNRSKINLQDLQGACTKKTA
# Description: Inhibition of HMG-CoA reductase was determined under following conditions. Human recombinant HMG-CoA reductase were pre-incubated with 35 ng/ml enzyme in reaction buffer, pH 7.5 (100 mM KH2PO4, 8 mM Glucose-6-Phosphate, 1 mM nicotinamide adenine dinucleotide phosphate, 4 mM ethylenediaminetetraacetic acid, 2 mM dithiothreitol, 0.6 Units glucose-6-phosphate dehydrogenase) for 15 minutes at 37° C. The reaction was initiated by addition of 2.5 μM [14C]HMG-CoA for another 20 minute incubation period and terminated by further addition of 1 N HCl. An aliquot was removed and then counted to determine the amount of [14C]Mevalonate formed. […] All samples were measured in duplicates.
SMILES,inhibition at 30 µM [2],inhibition at 3 µM [2],other results
O=C1[C@H](CC[C@H](O)c2ccc(F)cc2)[C@@H](c2ccc(O)cc2)N1c1ccc(F)cc1 [Ezetimibe],,,LDL levels relative to day one ([1]; t = day 1 (pre-treatment)): 100%; Total plasma cholesterol levels relative to day one (pre-treatment) ([1]; t = day 1 (pre-treatment)): 100%; LDL levels relative to day one ([1]; t = day 15): 22%*; Total plasma cholesterol levels relative to day one (pre-treatment) ([1]; t = day 15): 61%*; LDL levels relative to day one ([1]; t = day 29): 15%*; Total plasma cholesterol levels relative to day one (pre-treatment) ([1]; t = day 29): 41%*
O=c1c(O[C@@H]2O[C@H](CO)[C@H](O)[C@H](O)[C@H]2O)c(-c2ccc(O)c(O)c2)oc2cc(O)cc(O)c12 [Quercetin-3-O-beta-D-galactopyranoside],,75%,HMG-CoA reductase inhibiting activity (in words) [2]: very good HMG-CoA reductase inhibiting activity
C[C@H]1[C@H](C)CC[C@]2(C(=O)O)CC[C@]3(C)C(=CC[C@@H]4[C@@]5(C)CC[C@H](O)C(C)(C)[C@@H]5CC[C@]43C)[C@H]12 [Ursolic acid],0%,0%,

# Second part, led by results:
inhibition at 30 µM [2],inhibition at 3 µM [2],SMILES,other results
25%,,C[C@@H]1CC[C@]2(C(=O)O)CC[C@]3(C)C(=CC[C@@H]4[C@@]5(C)CC[C@H](O)C(C)(C)[C@@H]5CC[C@]43C)[C@@H]2[C@]1(C)O [Pomolic acid],
100%,100%,CC[C@H](C)C(=O)O[C@H]1C[C@@H](C)C=C2C=C[C@H](C)[C@H](CC[C@@H]3C[C@@H](O)CC(=O)O3)[C@H]21 [Lovastatin],
,91%,C[C@@H]1CC[C@]2(C(=O)O)CC[C@]3(C)C(=CC[C@@H]4[C@@]5(C)C[C@@H](O)[C@@H](O)C(C)(C)[C@@H]5CC[C@]43C)[C@@H]2[C@]1(C)O [Euscaphic acid],HMG-CoA reductase inhibiting activity (in words) [2]: strongest HMG-CoA reductase inhibiting activity
37%,,C[C@@H]1CC[C@]2(C(=O)O)CC[C@]3(C)C(=CC[C@@H]4[C@@]5(C)CC[C@@H](O)[C@](C)(CO)[C@@H]5CC[C@]43C)[C@@H]2[C@]1(C)O [Barbinervic acid],
